Source: patent US6403618B1, “Agent and method for controlling angiogenesis” (Novactyl, Inc., priority 2000, dated 2002)

Experiments:
WI-38 cells = assay: Effects of picolinic acid on growth (total cell protein); assay type: cell-based
Description: (§1) Cells were plated at 1.5×10^5 cells/60-mm dish; 48 hours later, the medium was removed, and new media with or without 3 mM picolinic acid was added. Total cell protein was determined at the indicated times; each point is the average of triplicate measurements from 2 cultures.

LoVo cells = assay: as above; assay type: cell-based
Description: as §1

human papilloma viruses = assay: Treatment of patients with papilloma virus skin lesions (common warts); assay type: in vivo
Description: Five patients ranging in age from 11 years to 52 years and each having at least one common wart induced by human papilloma viruses was treated with a topical preparation of picolinic acid. The topical preparation was either solution of 10% to 20% picolinic acid in deionized water or a topical ointment wherein 10% picolinic acid is incorporated into Aquaphor, i.e.1 g of picolinic acid in 10 g of Aquaphor.

psoriasis = assay: Treatment of proliferative skin disorders; assay type: in vivo, human; conditions: topical, preliminary information
Source text: Several patients suffering from proliferative skin disorders such as psoriasis have been included in a recent ongoing study of the anti-proliferative effects of topical picolinic acid. […] The patients may be treated with a topical application of approximately 5% to 20% picolinic acid, or a derivative thereof, in an absorption base. Alternatively, the patient may be treated with a solution containing approximately 5% to 20% picolinic acid, or derivative, in deionized water. The topical preparation may be applied twice a day or in an alternative pharmacologically acceptable regimen.

[1] = Stability experiments as preservative in foods and on fresh fruits; assay type: physicochemical; conditions: in foods and on the surface of fresh fruits
Source text: (§2) The chelating agents of the present invention can be used as preservatives in perishable items such as foods and pharmaceuticals and to prevent fungal growth on the surface of fresh fruits. Presently chemicals such as citrashine orthophenilphenol thiabendazole are used. […] Microbial and fungal growth is inhibited while the food components are unaffected. The preservative of the present invention has less likelihood of toxicity or untoward reactions if ingested that the present, complex chemical antifungals. The preferred concentration of picolinic acid or acceptable derivative for this use is approximately 1% to approximately 99%.

LD-50 = conditions: in vivo
[2] = tested on: papilloma virus ulcerative lesion; assay: Treatment of ulcerative lesion with topical picolinic acid; assay type: in vivo, horse
Description: The lesion was progressive, with total loss of hair over the area. The diagnosis was viral disease, i.e. papilloma virus, complicated by fungal infection. The horse was treated with conventional local antibiotic and chemical therapies for about four months.
An aqueous solution of 10% picolinic acid in deionized water was applied every other day with a cotton swab over and around the lesion. The treatment continued for 45 days. The course of the regression of the viral lesion was as follows: […]

transformed cells = conditions: cited from earlier work
normal cells = conditions: cited from earlier work
KB cells = assay: Effects of picolinic acid on growth (total cell protein); assay type: cell-based, human; conditions: 3 mM
Description: as §1

recombinant MPS-1 = recombinant MPS-1 (Homo sapiens, UniProt P42677); assay: Zinc dependent binding of MPS-1 to DNA, gel shift assays and 65Zn; assay type: biochemical
Source text: MPS-1 is a ubiquitous tumor marker and cell growth stimulator and is described in detail in the inventor's U.S. Pat. No. Re.35,585 (No. 5,243,041). MPS-1 has one zinc finger domain of the type CCCC. […] This is detected by a change in the electrophoretic mobility of MPS-1 under non-denaturing conditions. These experiments indicate that picolinic acid and derivatives should remove zinc and denature various types of zinc finger or zinc ring proteins, whether known or heretofore undiscovered, including viral proteins such as nucleocapsid p7 proteins, as will be explained further. Furthermore, the inventor has determined that any chemical compound, whether known or heretofore undiscovered, that will remove the zinc (or other metal) and denature the proteins or that will form a ternary complex (protein-zinc-chelator) can be effective as a therapeutic agent or as an autologous immune response modulator, as will be discussed in greater detail below.

iron in the cells = conditions: cited from earlier work
recurrent plantar wart = assay: Treatment of virus-induced plantar ulcer; assay type: in vivo, human
Description: A patient with recurrent plantar wart of about 2 cm in diameter was treated with topical picolinic acid. The patient, a pathologist who had difficulty walking because of the pain caused by the ulcer, had experimented with numerous medications for more than three months without any significant results prior to treatment with the picolinic acid. It is relevant to note that many plantar ulcers are transformed into malignant tumors.
The patient was treated with a solution of 10% picolinic acid in deionized water for one week. […] They then were treated with 10% picolinic acid in Aquaphor. The ointment was placed on the ulcer and on a patch. The patch was replaced every 24 hours.

[3] = tested on: metastatic breast cancer lesions; assay: Treatment of metastatic disease to the skull from breast cancer; assay type: in vivo, human; conditions: topical 10% picolinic acid in Aquaphor, changed twice daily
Description: A person with metastatic breast cancer to the skin and bone of the skull was treated with a topical preparation of 10% picolinic acid in Aquaphor. The preparation was applied to the cancerous lesions and to a bandage and changed twice daily. The multiple cancer lesions were approximately 1 to 1.5 cm in diameter.

[4] = tested on: Microbial and fungal growth; assay: Preservative use in foods and on fresh fruits
Source text: as §2

metastatic cancer = assay: Systemic administration in metastatic cancer; assay type: in vivo; conditions: 00 gelatin capsules at 500 mg per capsule
Source text: A systemic preparation of a picolinic acid, its derivatives or analogs containing approximately 1% to 100% active ingredient may be administered orally, intravenously or by any acceptable route for the treatment of cancer and systemic infections. […] The preparation can be provided as a flavored oral solution. Likewise, an injectable form may be prepared.

Source text for actinic lesions: Two patients with actinic lesions (average of 5 lesions per patient, each lesion being approximately 3 mm to 5 mm in diameter) were diagnosed as requiring liquid nitrogen removal of the lesions. The patients received a daily application of 10% picolinic acid in Aquaphor.

In the case of `O=C(O)c1ccccn1` [picolinic acid, 2-Pyridine carboxylic acid], the “growth of normal WI-38 cells” value (WI-38 cells; 3 mM picolinic acid, within 24 hours) is reported as “inhibited”, the toxic effects (WI-38 cells; 3 mM, up to 72 hours of treatment) is reported as “no toxic effects” and the “growth of LoVo cells” value (LoVo cells; 3 mM picolinic acid, FIG. 2) is reported as “inhibited”. The cytotoxicity (LoVo cells; 3 mM, longer exposure 48-72 hours) was “cytotoxicity and cell death was observed”, the “resolution with ointment versus solution” value (human papilloma viruses; 10% picolinic acid in Aquaphor) was “faster resolution” and the wart appearance (human papilloma viruses; topical 10-20% solution or 10% Aquaphor ointment, after seven days) was “central necrosis of the wart occurred”. For the same molecule, the “course of disease, 10% versus 20% solutions” value (human papilloma viruses; topical solution in deionized water) was “no significant difference”, the regression of psoriasis (psoriasis) was “significant effect in inducing regression” and the stability as preservative [1] was “highly stable”. The LD-50 (LD-50) was 140 grams/70 Kg, the lesion appearance ([2]; 10% aqueous solution topical every other day, after 10 days) was “central necrosis” and the “diameter of the lesion” value ([2]; 10% aqueous solution topical, after 20 days, 3 inch at start) was “approximately 2 inches”. For the same molecule, the “diameter of the lesion” value ([2]; 10% aqueous solution topical, after 30 days) was “about 1 inch”, the lesion outcome ([2]; 10% aqueous solution topical, at 45 days) was “resolved with some scar tissue” and the recurrence ([2]; after three additional months) was “without evidence of recurring disease”. The cytotoxicity (transformed cells) was “cytotoxicity and cell death was observed”, the cell cycle arrest (transformed cells; short-term treatment) was “blocked in different phases of the cell cycle” and the toxic effects (normal cells; longer exposure, most normal cells) was “no toxic effects”. The cell cycle arrest (normal cells; short-term treatment) was “arrests normal cells in G1, (Go)”, the “cytotoxic effects relative to LoVo cells” value (KB cells) was “not as pronounced as in the case of LoVo cells” and the “growth and cytotoxicity compared with LoVo results” value (KB cells) was “Equivalent results were obtained”. The “removal of radioactive 65Zn from MPS-1” value (recombinant MPS-1; CCCC zinc finger, electrophoretic mobility, non-denaturing conditions) was “remove radioactive ^65Zn from MPS-1”, the “zinc dependent binding of recombinant MPS-1 to DNA” value (recombinant MPS-1; gel shift assays) was “inhibit” and the “incorporation of iron into the cells” value (iron in the cells) was “inhibits”. For the same molecule, the “removal of radioiron from the cells” value (iron in the cells) was “effectively removes”, the lesion outcome (actinic lesions; daily 10% picolinic acid in Aquaphor, approximately three weeks, two patients) was “completely cured” and the “effects on normal skin” value (actinic lesions; in vivo) was “without any effects on normal skin”. The ulcer appearance (recurrent plantar wart; 10% solution in deionized water for one week) was “Central necrosis was noted”, the ulcer outcome (recurrent plantar wart; then 10% in Aquaphor with patch, after an additional three weeks) was “resolved” and the “time until lesions resolved with scar tissue” value [3] was “approximately 35 days”. For the same molecule, the “Microbial and fungal growth” value [4] was “inhibited” and the “control of metastatic cancer” value (metastatic cancer) was “effective”.
